The values that follow come from patent US6235707A, “Anticoagulant peptidyl-arginine aldehyde derivatives” (Gyogyszerkutato Intezet Kft., priority 1996, dated 2001).

Common to all, as to type: biochemical
The target of assay [1] is tissue plasminogen activator (tPA) (Homo sapiens, UniProt P00750). The assay can be described thus: fibrin-plate method, plasmin formation induced by tPA. An excerpt: The inhibitory effect of the new compounds of the invention on plasmin (PL) as well as on plasmin formation induced by tissue plasminogen activator (tPA) and urokinase (UK) was examined by the fibrin-plate method [D. Bagdy et al.: Thromb. Haemost. 67, 325 (1992)]. Compounds C1 and C5 served as controls. […] V. Jackson et al.: J. Cardiovasc. Pharmacol. 21, 587 (1993))]. In Table 4 the results obtained with the new compounds 1 and 2 as well as those with controls C1 and C5 are presented as an example.
tissue plasminogen activator (tPA), sequence (P00750 36-562, species assumed): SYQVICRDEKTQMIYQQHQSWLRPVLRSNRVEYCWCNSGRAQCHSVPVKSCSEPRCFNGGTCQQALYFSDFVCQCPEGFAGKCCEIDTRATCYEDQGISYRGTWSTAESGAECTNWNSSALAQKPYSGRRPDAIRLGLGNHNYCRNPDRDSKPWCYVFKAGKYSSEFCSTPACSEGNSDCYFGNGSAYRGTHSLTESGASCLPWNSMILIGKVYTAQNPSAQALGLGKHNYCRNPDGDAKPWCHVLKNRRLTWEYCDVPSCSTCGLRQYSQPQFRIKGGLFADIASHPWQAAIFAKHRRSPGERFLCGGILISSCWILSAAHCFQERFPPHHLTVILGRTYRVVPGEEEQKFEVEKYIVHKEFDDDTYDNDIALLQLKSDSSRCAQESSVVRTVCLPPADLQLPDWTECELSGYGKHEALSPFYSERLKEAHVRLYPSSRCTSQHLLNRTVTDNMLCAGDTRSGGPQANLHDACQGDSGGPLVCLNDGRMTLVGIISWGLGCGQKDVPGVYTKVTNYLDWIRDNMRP

Assay [2] addresses T1, clot-bound thrombin (Homo sapiens, UniProt P00734).
T1 construct: from tissue; host or cells: clot of recalcified human platelet-rich plasma
The assay can be described thus: inhibition of plasma clot-bound thrombin (Methods M1, M3). As to conditions: clot from platelet-rich human plasma; Tos-Gly-Pro-Arg-pNA substrate. The method, then: Plasma-clot was obtained by recalcificating platelet-rich human plasma, and fibrin gel by clotting human fibrinogen with human thrombin. For the activity measures of fXa and thrombin Z-D-Arg-Gly-Arg-pNA or Tos-Gly-Pro-Arg-pNA substrates were used in agreement with Methods M1-M3.
Preparation of Clots from Human Plasma
a) Platelet-rich plasma is prepared by centrifuging a 9:1 mixture of human blood and 3.8% sodium citrate solution for 5 min. at 240×g.
b) 200 μl platelet-rich plasma and 80 μl 40 mM CaCl2 solution are allowed to stand at room temperature for 1 hour. The thus-formed clot is washed with 6×2 ml of 0.9% NaCl solution with gentle stirring to remove the residual enzymes (thrombin and factor Xa). The washing medium is assayed for thrombin-like activity as follows:
c) To 400 μl of washing medium 100 μl of 1 mM Tos-Gly-Pro-Arg-pNA substrate solution is added, the mixture is incubated for 30 min at 37° C., then the reaction is stopped with 100 μl of 50% acetic acid. From this mixture 150 μl aliquots are applied onto a 96-well microtitre plate and the extinction coefficients are measured at 405 nm (ELISA READER SLT Laborinstrument GmbH, Austria). In case of efficient washing the extinction coefficient is smaller than 5% of that of the control.
Determination of the Inhibition of Clot-bound Thrombin
a) Solutions are made from the peptide inhibitors according to Method M2/a.
b) After draining off the washing medium the clots (Method M1) are mixed with 400 μl of peptide solution (3 parallel samples with each concentration), then the samples are incubated for 5 min. at 37° C. together with a separate 400 μl buffer serving as control. Then 100 μl […] 1 mM Tos-Gly-Pro-Arg-pNA substrate solution is added and the incubation continued for further 30 min. at 37° C. The experiment is continued according to M2/c.

In assay [3] the target is T2, isolated human fXa (Homo sapiens, UniProt P00742).
T2 construct: The isolated active factor (e.g. thrombin, fXa) and its chromogen or fluorogen peptide-amide substrate are reacted; purchased SIGMA
T2 sequence (P00742 235-488 limits assumed): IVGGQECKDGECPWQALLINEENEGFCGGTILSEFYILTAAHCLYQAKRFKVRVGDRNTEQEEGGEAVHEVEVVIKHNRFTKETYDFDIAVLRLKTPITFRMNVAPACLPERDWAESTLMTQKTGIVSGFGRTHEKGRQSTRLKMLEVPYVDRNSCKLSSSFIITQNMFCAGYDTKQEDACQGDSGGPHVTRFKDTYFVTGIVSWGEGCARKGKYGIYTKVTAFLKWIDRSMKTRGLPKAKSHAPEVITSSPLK
T2 sequence (P00742 41-179 partner limits assumed): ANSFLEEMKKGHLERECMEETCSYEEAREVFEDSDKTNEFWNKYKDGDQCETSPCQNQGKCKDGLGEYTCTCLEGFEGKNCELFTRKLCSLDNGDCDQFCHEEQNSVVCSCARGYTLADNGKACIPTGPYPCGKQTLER
The assay can be described thus: fXa inhibition in solution, amidolytic method on Bz-Ile-Glu-Gly-Arg-pNA chromogen substrate (Method M6). As to conditions: Table 3; isolated human fXa, Bz-Ile-Glu-Gly-Arg-pNA; read-out: B: fXa inhibiting IC50. How it is done: Anticoagulant activity (i.e. inhibition of the proteolytic reactions in the process) is measured by anticoagulant tests, e.g. in the thrombin time (TT), activated partial thromboplastin time (APTT) and prothrombin time (PT) tests [E. J. W. Bovie et al., Mayo Clinic Laboratory Manual of Haemostasis; W. B. Saunders Co., Philadelphia (1971)]. Plasma, inhibited in spontaneous coagulation, e.g. citrate-plasma, is made to coagulate and the required coagulation time is measured. Upon the action of anticoagulants the coagulation time is prolonged proportionally to the inhibition of the reaction(s) in the process. The anticoagulant effect can be characterised by the substance concentration required to prolong the coagulation time twofold compared to the control (IC50). The effect of anticoagulants on individual coagulant proteases is measured by the amidolytic method [R. Lottenberg et al., Methods in Enzymol. 80, 341 (1981); G. Cleason, Blood Coagulation and Fibrinolysis 5, 411 (1994)]. The isolated active factor (e.g. thrombin, fXa) and its chromogen or fluorogen peptide-amide substrate are reacted in the presence or absence of the inhibitor, resp. The enzyme inhibiting action is characterised by the inhibitory constant (IC50) measured during amidolysis.
The in vitro anticoagulant effects of the compounds of general formula (I) was measured by the prothrombin time (PT), activated partial thromboplastin time (APTT) and thrombin time (TT) tests [D. Bagdy et al., Thromb. Haemost. 67, 325 (1992)]. The fxa-inhibiting effect of the compounds was also determined using the Bz-Ile-Glu-Gly-Arg-pNA chromogen substrate (see method M6).
Determination of Factor Xa Inhibition in Solution on a 96-well Microtitre Plate
a) By means of phosphate buffer (0.1M sodium phosphate and 0.05M sodium chloride, pH=7.4) 1.3 E/ml solution is prepared from human factor Xa (SIGMA), and 0.1-1.0-10 and 100 μg/ml solutions from the peptide inhibitors. The Bz-Ile-Glu-Gly-Arg-pNA substrate is used in distilled water solution ([…]).
b) From the control and the peptide inhibitor solutions (3 parallel samples of each concentration) 30-30 μl aliquots are placed into the wells. 30 μl of factor Xa, 90 μl of buffer and 150 μl of substrate are added to the peptide solution and the extinction is determined after 10 min. at 405 nm. Thereafter the steps are the same as in M2/c.

A word on the IC50: it is the point on the concentration scale where inhibition reaches its midpoint. Turning to `CCOC(=O)N[C@H](CC1CCC1)C(=O)N1CCC[C@H]1C(=O)N[C@H](C=O)CCCNC(=N)N` [Example 1, Ethoxycarbonyl-3-cyclobutyl-D-alanyl-L-prolyl-L-arginine aldehyde], the IC50 turned out to be 27000 nM in assay [1] (fibrin plate, hydrolysed area reduced to 50% of control); 390 nM in assay [2]; 40 nM in assay [3]. Besides, the “B: relative efficiency, tPA” value in assay [1] (related to the activity of C1 (1/IC50 = 1)) came out at 4.9. Also, the “activity against tPA, times lower than that of compound C5” value in assay [1] (text b147, second of three enzymes) is listed as 4.5 times.
